According to patent publication US20240317723A1, “SUBSTITUTED AMINO AZA-HETEROARYL COMPOUNDS AS INHIBITORS OF THE HAEMATOPOIETIC PROGENITOR KINASE 1 (HPK1)” (priority 2021, published 2024):

Key:
[1] = target: T1, Recombinant (1-346) HPK1 (h) (Homo sapiens, UniProt Q92918); assay: HPK1 Human STE Kinase Enzymatic Radiometric Assay; type: biochemical; conditions: [gamma-33P]-ATP, myelin basic protein substrate, read-out: HPK1 IC50 nM Range*
T1 construct: Recombinant (1-346) HPK1 (h) is incubated with 8 mM MOPS pH 7.0
T1 sequence (Q92918 1-346): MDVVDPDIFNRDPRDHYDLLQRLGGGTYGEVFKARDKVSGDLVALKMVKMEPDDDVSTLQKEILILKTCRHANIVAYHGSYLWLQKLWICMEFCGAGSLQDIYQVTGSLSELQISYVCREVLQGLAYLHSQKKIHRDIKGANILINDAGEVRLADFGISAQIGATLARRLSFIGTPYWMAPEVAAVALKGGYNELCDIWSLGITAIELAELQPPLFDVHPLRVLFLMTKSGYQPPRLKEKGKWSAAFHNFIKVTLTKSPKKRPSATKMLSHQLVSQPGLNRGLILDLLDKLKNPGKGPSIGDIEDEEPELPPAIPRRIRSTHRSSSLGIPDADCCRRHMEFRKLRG
Method: (a) HPK1 Human STE Kinase Enzymatic Radiometric Assay
A stock solution of 10 mM of test compound is prepared in DMSO. The compound plate was prepared by 3-fold and 9-point serial dilutions. Recombinant (1-346) HPK1 (h) is incubated with 8 mM MOPS pH 7.0, 0.2 mM EDTA, 0.33 mg/mL myelin basic protein, 10 mM MgAcetate and [gamma-33P]-ATP (specific activity and concentration as required). The reaction is initiated by the addition of the Mg/ATP mix. After incubation for 40 minutes at RT, the reaction is stopped by the addition of phosphoric acid to a concentration of 0.5%. 10 uL of the reaction is then spotted onto a P30 filtermat and washed four times for 4 minutes in 0.425% phosphoric acid and once in methanol prior to drying and scintillation counting. For more details of kinase assay protocols, see: Gao, Y. et. al.; Biochem J. 451 (2): 313-328, 2013.

[2] = target: Lck (h) (Homo sapiens, UniProt P06239); assay: Lck Human STE Kinase Enzymatic Radiometric Assay; type: biochemical; conditions: for IC50: radiometric, [gamma-33P]-ATP, Cdc2 peptide substrate, read-out: Lck IC50, nM Range*
Lck (h), sequence (P06239 whole entry): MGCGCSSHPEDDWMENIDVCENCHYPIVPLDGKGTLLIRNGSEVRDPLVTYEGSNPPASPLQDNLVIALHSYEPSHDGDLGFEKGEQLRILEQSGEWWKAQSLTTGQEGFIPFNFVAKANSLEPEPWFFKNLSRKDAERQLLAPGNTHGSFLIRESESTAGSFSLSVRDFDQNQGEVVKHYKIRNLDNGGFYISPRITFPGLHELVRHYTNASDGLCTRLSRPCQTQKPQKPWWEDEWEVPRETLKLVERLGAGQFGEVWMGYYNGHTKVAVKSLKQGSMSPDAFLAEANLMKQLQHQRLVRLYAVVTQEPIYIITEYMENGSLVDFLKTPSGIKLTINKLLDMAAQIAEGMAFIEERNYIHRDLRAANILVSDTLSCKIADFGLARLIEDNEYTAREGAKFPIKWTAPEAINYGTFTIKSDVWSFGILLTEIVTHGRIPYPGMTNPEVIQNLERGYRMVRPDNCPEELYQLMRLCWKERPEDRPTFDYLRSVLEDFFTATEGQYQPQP
Method: (b) Lck Human STE Kinase Enzymatic Radiometric Assay
Lck (h) is incubated with 50 mM Tris pH 7.5, 0.1 mM EGTA, 0.1 mM Na3VO4, 250 uM KVEKIGEGTYGVVYK (Cdc2 peptide), 10 mM MgAcetate and [gamma-33P]-ATP (specific activity and concentration as required). The reaction is initiated by the addition of the Mg/ATP mix. After incubation for 40 minutes at room temperature, the reaction is stopped by the addition of phosphoric acid to a concentration of 0.5%. 10 uL of the reaction is then spotted onto a P30 filtermat and washed four times for 4 minutes in 0.425% phosphoric acid and once in methanol prior to drying and scintillation counting. For more details on the kinase assay procedures see: Gao, Y. et. al.; Biochem J., 451 (2): 313-328, 2013.
In some embodiments the presence of substituents on monocyclic Cy^2 rings or when Cy^2 is a bicyclic ring (unsubstituted or substituted) provides compounds with improved selectivity for inhibition of HPK1 vs Lck (see, for example, Table 3 and Table 4).

Structure (SMILES) | IC50 [1] | IC50 [2] | Selectivity ([2]; selectivity for inhibition of HPK1 vs Lck)
C[C@H]1CCCCN1c1ccc(-c2cnc(N)c(-c3ccc4c(c3)CCNC4=O)n2)c(F)c1 [Example I-18, (S)-6-(3-amino-6-(2-fluoro-4-(2-methylpiperidin-1-yl)phenyl)pyrazin-2-yl)-3,4-dihydroisoquinolin-1(2H)-one] | 6 to 10 nM | 21 to 200 nM | –
C[C@@H]1COCCN1c1ccc(-c2cnc(N)c(-c3ccc4c(c3)CCNC4=O)n2)c(F)c1 [Example I-22, (R)-6-(3-amino-6-(2-fluoro-4-(3-methylmorpholino)phenyl)pyrazin-2-yl)-3,4-dihydroisoquinolin-1(2H)-one] | 6 to 10 nM | 21 to 200 nM | –
C[C@H]1COCCN1c1ccc(-c2cnc(N)c(-c3ccc4c(c3)CCNC4=O)n2)c(F)c1 [Example I-23, (S)-6-(3-amino-6-(2-fluoro-4-(3-methylmorpholino)phenyl)pyrazin-2-yl)-3,4-dihydroisoquinolin-1(2H)-one] | 0.1 to 5 nM | 11 to 20 nM | –
CC(C)C1CCCN(c2ccc(-c3cnc(N)c(-c4ccc5c(c4)CCNC5=O)n3)cc2)C1 (centres unmarked) [Example I-24, 6-(3-amino-6-(4-(3-isopropylpiperidin-1-yl)phenyl)pyrazin-2-yl)-3,4-dihydroisoquinolin-1(2H)-one] | 0.1 to 5 nM | 21 to 200 nM | –
CC(C)C1CCCN(c2ccc(-c3cnc(N)c(-c4ccc5c(c4)CCNC5=O)n3)c(F)c2)C1 (centres unmarked) [Example I-25, 6-(3-amino-6-(2-fluoro-4-(3-isopropylpiperidin-1-yl)phenyl)pyrazin-2-yl)-3,4-dihydroisoquinolin-1(2H)-one] | 6 to 10 nM | 21 to 200 nM | –
CN1C[C@@H]2C[C@H]1CN2c1ccc(-c2cnc(N)c(-c3ccc4c(c3)CCNC4=O)n2)cc1 [Example I-26, 6-(3-amino-6-(4-((1S,4S)-5-methyl-2,5-diazabicyclo[2.2.1]heptan-2-yl)phenyl)pyrazin-2-yl)-3,4-dihydroisoquinolin-1(2H)-one] | 0.1 to 5 nM | 11 to 20 nM | –
CC(C)[C@@H]1CN(c2ccc(-c3cnc(N)c(-c4cc5c(cc4F)C(=O)NCC5)n3)cc2)CCO1 [Example I-27, (R)-6-(3-amino-6-(4-(2-isopropylmorpholino)phenyl)pyrazin-2-yl)-7-fluoro-3,4-dihydroisoquinolin-1(2H)-one] | 0.1 to 5 nM | 6 to 10 nM | –
CC(C)[C@H]1CN(c2ccc(-c3cnc(N)c(-c4cc5c(cc4F)C(=O)NCC5)n3)cc2)CCO1 [Example I-28, (S)-6-(3-amino-6-(4-(2-isopropylmorpholino)phenyl)pyrazin-2-yl)-7-fluoro-3,4-dihydroisoquinolin-1(2H)-one] | 0.1 to 5 nM | 11 to 20 nM | –
CC(C)[C@@H]1CN(c2ccc(-c3cnc(N)c(-c4cc5c(cc4F)C(=O)NCC5)n3)c(F)c2)CCO1 [Example I-29, (R)-6-(3-amino-6-(2-fluoro-4-(2-isopropylmorpholino)phenyl)pyrazin-2-yl)-7-fluoro-3,4-dihydroisoquinolin-1(2H)-one] | 0.1 to 5 nM | 21 to 200 nM | –
CC(C)[C@H]1CN(c2ccc(-c3cnc(N)c(-c4cc5c(cc4F)C(=O)NCC5)n3)c(F)c2)CCO1 [Example I-30, (S)-6-(3-amino-6-(2-fluoro-4-(2-isopropylmorpholino)phenyl)pyrazin-2-yl)-7-fluoro-3,4-dihydroisoquinolin-1(2H)-one] | 0.1 to 5 nM | 21 to 200 nM | –
CC(C)[C@@H]1CN(c2ccc(-c3cnc(N)c(-c4cc5c(cc4F)C(=O)NCC5)n3)c(F)c2F)CCO1 [Example I-31, (R)-6-(3-amino-6-(2,3-difluoro-4-(2-isopropylmorpholino)phenyl)pyrazin-2-yl)-7-fluoro-3,4-dihydroisoquinolin-1(2H)-one] | 0.1 to 5 nM | 21 to 200 nM | –
CC(C)[C@H]1CN(c2ccc(-c3cnc(N)c(-c4cc5c(cc4F)C(=O)NCC5)n3)c(F)c2F)CCO1 [Example I-32, (S)-6-(3-amino-6-(2,3-difluoro-4-(2-isopropylmorpholino)phenyl)pyrazin-2-yl)-7-fluoro-3,4-dihydroisoquinolin-1(2H)-one] | 0.1 to 5 nM | 21 to 200 nM | –
CN1CCN(c2ccc(-c3cnc(N)c(-c4ccc5c(c4)CCNC5=O)n3)cc2)C=N1 [Example I-33, 6-(3-amino-6-(4-(1-methyl-5,6-dihydro-1,2,4-triazin-4(1H)-yl)phenyl)pyrazin-2-yl)-3,4-dihydroisoquinolin-1(2H)-one] | 0.1 to 5 nM | 11 to 20 nM | –
Nc1ncc(-c2ccc(N3C[C@@H]4C[C@H]3CN4CC(F)(F)F)cc2)nc1-c1ccc2c(c1)CCNC2=O [Example I-34, 6-(3-amino-6-(4-((1S,4S)-5-(2,2,2-trifluoroethyl)-2,5-diazabicyclo[2.2.1]heptan-2-yl)phenyl)pyrazin-2-yl)-3,4-dihydroisoquinolin-1(2H)-1-one] | 0.1 to 5 nM | 11 to 20 nM | –
Nc1ncc(-c2ccc(N3CCN(CC(F)(F)F)CC3)cc2)nc1-c1ccc2c(c1)CCNC2=O [Example I-35, 6-(3-amino-6-(4-(4-(2,2,2-trifluoroethyl)piperazin-1-yl)phenyl)pyrazin-2-yl)-3,4-dihydroisoquinolin-1(2H)-one] | 0.1 to 5 nM | 11 to 20 nM | –
Nc1ncc(-c2ccc(C3CCN(CC(F)(F)F)CC3)cc2)nc1-c1ccc2c(c1)CCNC2=O [Example I-36, 6-(3-amino-6-(4-(1-(2,2,2-trifluoroethyl)piperidin-4-yl)phenyl)pyrazin-2-yl)-3,4-dihydroisoquinolin-1(2H)-one] | 0.1 to 5 nM | 11 to 20 nM | –

Further lines, results first:

IC50 [1] | IC50 [2] | Selectivity ([2]; selectivity for inhibition of HPK1 vs Lck) | Structure (SMILES)
0.1 to 5 nM | 21 to 200 nM | 1066 | CC(C)[C@H]1CN(c2ccc(-c3cnc(N)c(-c4ccc5c(c4)CCNC5=O)n3)c(F)c2)CCO1 [Example I-14, (S)-6-(3-amino-6-(2-fluoro-4-(2-isopropylmorpholino)phenyl)pyrazin-2-yl)-3,4-dihydroisoquinolin-1(2H)-one]
0.1 to 5 nM | 21 to 200 nM | – | CC(C)[C@@H]1CN(c2ccc(-c3cnc(N)c(-c4ccc5c(c4)CCNC5=O)n3)c(F)c2F)CCO1 [Example I-15, (R)-6-(3-amino-6-(2,3-difluoro-4-(2-isopropylmorpholino)phenyl)pyrazin-2-yl)-3,4-dihydroisoquinolin-1(2H)-one]
0.1 to 5 nM | 21 to 200 nM | – | CC(C)[C@H]1CN(c2ccc(-c3cnc(N)c(-c4ccc5c(c4)CCNC5=O)n3)c(F)c2F)CCO1 [Example I-16, (S)-6-(3-amino-6-(2,3-difluoro-4-(2-isopropylmorpholino)phenyl)pyrazin-2-yl)-3,4-dihydroisoquinolin-1(2H)-one]
0.1 to 5 nM | 21 to 200 nM | – | C[C@@H]1CCCCN1c1ccc(-c2cnc(N)c(-c3ccc4c(c3)CCNC4=O)n2)c(F)c1 [Example I-17, (R)-6-(3-amino-6-(2-fluoro-4-(2-methylpiperidin-1-yl)phenyl)pyrazin-2-yl)-3,4-dihydroisoquinolin-1(2H)-one]
0.1 to 5 nM | 11 to 20 nM | – | CC(=O)N1CCN(c2ccc(-c3cnc(N)c(-c4ccc5c(c4)CCNC5=O)n3)cc2)CC1 [Example I-19, 6-(6-(4-(4-acetylpiperazin-1-yl)phenyl)-3-aminopyrazin-2-yl)-3,4-dihydroisoquinolin-1(2H)-one]
0.1 to 5 nM | 11 to 20 nM | – | CN(C)C1CCN(c2ccc(-c3cnc(N)c(-c4ccc5c(c4)CCNC5=O)n3)c(F)c2)C1 (centres unmarked) [Example I-20, 6-(3-amino-6-(4-(3-(dimethylamino)pyrrolidin-1-yl)-2-fluorophenyl)pyrazin-2-yl)-3,4-dihydroisoquinolin-1(2H)-one]
0.1 to 5 nM | 11 to 20 nM | – | CN(C)C1CCN(c2ccc(-c3cnc(N)c(-c4ccc5c(c4)CCNC5=O)n3)c(F)c2F)C1 (centres unmarked) [Example I-21, 6-(3-amino-6-(4-(3-(dimethylamino)pyrrolidin-1-yl)-2,3-difluorophenyl)pyrazin-2-yl)-3,4-dihydroisoquinolin-1(2H)-one]
